Reference: ChEMBL document CHEMBL3885861, “Open TG-GATES”

Species: Rattus norvegicus
Assay: Open TG-GATES - Regimen: Daily Repeat
Assay type: toxicity, organism-based, Sprague-Dawley
Set-up: regimen Daily Repeat, gender Male, age 6 weeks
Conditions: in vivo, po, route gavage; for APTT / Bas / Eos / Fbg / Hb / Ht / Lym / MCH / MCHC / MCV / Mono / Neu / PT / Plat / RBC / Ret / WBC: tissue Blood; for KIDNEY_L / KIDNEY_R / KIDNEY_TOTAL: tissue Kidney; for LIVER: tissue Liver; for A/G / ALP / ALT / AST / BUN / CRE / Ca / Cl / DBIL / GLC / IP / K / LDH / Na / PL / RALB / TBIL / TC / TG / TP / gamma-GTP: tissue Plasma
[1] = 120 mg/kg, 72 h, dose level Middle, time 3 day
[2] = 120 mg/kg, […], dose level Middle, time 7 day
[3] = 120 mg/kg, […], dose level Middle, time 14 day
[4] = 120 mg/kg, […], dose level Middle, time 28 day
[5] = 400 mg/kg, 72 h, dose level High, time 3 day
[6] = 400 mg/kg, […], dose level High, time 7 day
[7] = 400 mg/kg, […], dose level High, time 14 day
[8] = 400 mg/kg, […], dose level High, time 28 day

## Cc1cccc(C)c1OCC(C)N (centres undefined) [MEXILETINE]
[1]
  TERMINAL_BW: 236.3 g
  APTT: 21.8 s
  Bas: 0%
  Eos: 0.8%
  Fbg: 325.2 mg/dL
  Hb: 12.9 g/dL
  Ht: 40.1%
  Lym: 74%
  MCH: 19.7 pg
  MCHC: 32.3%
  MCV: 61.1 fL
  Mono: 2.6%
  Neu: 21.6%
  PT: 15.3 s
  Plat: 115.5 x10_4/uL
  RBC: 656.6 x10_4/ul
  Ret: 6.1%
  WBC: 96.8 x10_2/uL
  KIDNEY_L: 1 g
  KIDNEY_R: 1 g
  KIDNEY_TOTAL: 2 g
  LIVER: 11.5 g
  A/G: 1.3
  ALP: 1686.2 IU/L
  ALT: 48.6 IU/L
  AST: 73.4 IU/L
  BUN: 16.6 mg/dL
  CRE: 0.1 mg/dL
  Ca: 10.8 mg/dL
  Cl: 106.2 meq/L
  DBIL: 0 mg/dL
  GLC: 197 mg/dL
  IP: 8 mg/dL
  K: 4.3 meq/L
  LDH: 181.2 IU/L
  Na: 141.6 meq/L
  PL: 168 mg/dL
  RALB: 3.2 g/dL
  TBIL: 0.002 mg/dL
  TC: 91.2 mg/dL
  TG: 150.2 mg/dL
  TP: 5.7 g/dL
  gamma-GTP: 1.8 IU/L
[2]
  TERMINAL_BW: 275.9 g
  APTT: 22.2 s
  Bas: 0%
  Eos: 0.8%
  Fbg: 321.2 mg/dL
  Hb: 13.1 g/dL
  Ht: 40.4%
  Lym: 77.8%
  MCH: 20.5 pg
  MCHC: 32.4%
  MCV: 63.3 fL
  Mono: 2.4%
  Neu: 18.4%
  PT: 15.6 s
  Plat: 105.3 x10_4/uL
  RBC: 638 x10_4/ul
  Ret: 6.2%
  WBC: 107.1 x10_2/uL
  KIDNEY_L: 1.1 g
  KIDNEY_R: 1.1 g
  KIDNEY_TOTAL: 2.2 g
  LIVER: 13.2 g
  A/G: 1.2
  ALP: 1567.6 IU/L
  ALT: 45 IU/L
  AST: 69.8 IU/L
  BUN: 18.4 mg/dL
  CRE: 0.1 mg/dL
  Ca: 11 mg/dL
  Cl: 104.8 meq/L
  DBIL: 0 mg/dL
  GLC: 188.6 mg/dL
  IP: 7.8 mg/dL
  K: 4.2 meq/L
  LDH: 145.6 IU/L
  Na: 142 meq/L
  PL: 163.2 mg/dL
  RALB: 3 g/dL
  TBIL: 0.004 mg/dL
  TC: 81.2 mg/dL
  TG: 148 mg/dL
  TP: 5.6 g/dL
  gamma-GTP: 1.6 IU/L
[3]
  TERMINAL_BW: 328.1 g
  APTT: 21.8 s
  Bas: 0%
  Eos: 0.4%
  Fbg: 310.2 mg/dL
  Hb: 13.1 g/dL
  Ht: 40.6%
  Lym: 83.2%
  MCH: 20.1 pg
  MCHC: 32.2%
  MCV: 62.6 fL
  Mono: 2%
  Neu: 13.6%
  PT: 15.9 s
  Plat: 113.4 x10_4/uL
  RBC: 648.8 x10_4/ul
  Ret: 7.3%
  WBC: 96 x10_2/uL
  KIDNEY_L: 1.3 g
  KIDNEY_R: 1.3 g
  KIDNEY_TOTAL: 2.6 g
  LIVER: 14.8 g
  A/G: 1.1
  ALP: 1443.2 IU/L
  ALT: 43.2 IU/L
  AST: 74.6 IU/L
  BUN: 19.4 mg/dL
  CRE: 0.2 mg/dL
  Ca: 10.5 mg/dL
  Cl: 107.2 meq/L
  DBIL: 0 mg/dL
  GLC: 190.6 mg/dL
  IP: 6.5 mg/dL
  K: 4.4 meq/L
  LDH: 157.8 IU/L
  Na: 140.6 meq/L
  PL: 160 mg/dL
  RALB: 2.9 g/dL
  TBIL: 0.002 mg/dL
  TC: 80.8 mg/dL
  TG: 155.6 mg/dL
  TP: 5.7 g/dL
  gamma-GTP: 2.2 IU/L
[4]
  TERMINAL_BW: 389.9 g
  APTT: 23.8 s
  Bas: 0%
  Eos: 1.8%
  Fbg: 328.2 mg/dL
  Hb: 15.1 g/dL
  Ht: 44%
  Lym: 74%
  MCH: 19.4 pg
  MCHC: 34.4%
  MCV: 56.6 fL
  Mono: 2.4%
  Neu: 21.2%
  PT: 15.6 s
  Plat: 94.2 x10_4/uL
  RBC: 777 x10_4/ul
  Ret: 3.1%
  WBC: 93 x10_2/uL
  KIDNEY_L: 1.5 g
  KIDNEY_R: 1.5 g
  KIDNEY_TOTAL: 2.9 g
  LIVER: 16.8 g
  A/G: 1
  ALP: 977 IU/L
  ALT: 42.4 IU/L
  AST: 68.8 IU/L
  BUN: 16.2 mg/dL
  CRE: 0.2 mg/dL
  Ca: 10.4 mg/dL
  Cl: 105.6 meq/L
  DBIL: 0 mg/dL
  GLC: 201.6 mg/dL
  IP: 6 mg/dL
  K: 3.7 meq/L
  LDH: 158.2 IU/L
  Na: 142.8 meq/L
  PL: 157.8 mg/dL
  RALB: 3.1 g/dL
  TBIL: 0.012 mg/dL
  TC: 80.2 mg/dL
  TG: 145.2 mg/dL
  TP: 6.1 g/dL
  gamma-GTP: 2 IU/L
[5]
  TERMINAL_BW: 229.5 g
  APTT: 21.1 s
  Bas: 0%
  Eos: 1%
  Fbg: 337.4 mg/dL
  Hb: 13.2 g/dL
  Ht: 40.8%
  Lym: 76.6%
  MCH: 19.9 pg
  MCHC: 32.5%
  MCV: 61.3 fL
  Mono: 2.2%
  Neu: 19.6%
  PT: 15.8 s
  Plat: 111.4 x10_4/uL
  RBC: 666.8 x10_4/ul
  Ret: 5.4%
  WBC: 88.4 x10_2/uL
  KIDNEY_L: 1 g
  KIDNEY_R: 1.1 g
  KIDNEY_TOTAL: 2.1 g
  LIVER: 10.3 g
  A/G: 1.3
  ALP: 1772.8 IU/L
  ALT: 54 IU/L
  AST: 75.6 IU/L
  BUN: 13.8 mg/dL
  CRE: 0.1 mg/dL
  Ca: 10.5 mg/dL
  Cl: 106.2 meq/L
  DBIL: 0 mg/dL
  GLC: 191.4 mg/dL
  IP: 7.4 mg/dL
  K: 4 meq/L
  LDH: 170 IU/L
  Na: 142.2 meq/L
  PL: 155.6 mg/dL
  RALB: 3.2 g/dL
  TBIL: 0.008 mg/dL
  TC: 86 mg/dL
  TG: 87.4 mg/dL
  TP: 5.6 g/dL
  gamma-GTP: 1.4 IU/L
[6]
  TERMINAL_BW: 249.3 g
  APTT: 22.2 s
  Bas: 0%
  Eos: 0.4%
  Fbg: 343.8 mg/dL
  Hb: 13.8 g/dL
  Ht: 41.9%
  Lym: 79%
  MCH: 20.1 pg
  MCHC: 32.9%
  MCV: 61 fL
  Mono: 2%
  Neu: 17%
  PT: 16.4 s
  Plat: 111.8 x10_4/uL
  RBC: 687.2 x10_4/ul
  Ret: 4%
  WBC: 107.9 x10_2/uL
  KIDNEY_L: 1.1 g
  KIDNEY_R: 1.1 g
  KIDNEY_TOTAL: 2.3 g
  LIVER: 11.5 g
  A/G: 1.2
  ALP: 1505.6 IU/L
  ALT: 50.2 IU/L
  AST: 76 IU/L
  BUN: 18 mg/dL
  CRE: 0.2 mg/dL
  Ca: 10.9 mg/dL
  Cl: 104.6 meq/L
  DBIL: 0 mg/dL
  GLC: 180.6 mg/dL
  IP: 7.2 mg/dL
  K: 4.2 meq/L
  LDH: 130.4 IU/L
  Na: 143 meq/L
  PL: 168.4 mg/dL
  RALB: 3.1 g/dL
  TBIL: 0.004 mg/dL
  TC: 85.6 mg/dL
  TG: 138.2 mg/dL
  TP: 5.7 g/dL
  gamma-GTP: 1.2 IU/L
[7]
  TERMINAL_BW: 299.7 g
  APTT: 21.7 s
  Bas: 0%
  Eos: 1%
  Fbg: 292.2 mg/dL
  Hb: 12.9 g/dL
  Ht: 39.9%
  Lym: 75.8%
  MCH: 20.5 pg
  MCHC: 32.4%
  MCV: 63.2 fL
  Mono: 2.4%
  Neu: 20.6%
  PT: 16.5 s
  Plat: 108.6 x10_4/uL
  RBC: 632.4 x10_4/ul
  Ret: 7.4%
  WBC: 62.3 x10_2/uL
  KIDNEY_L: 1.3 g
  KIDNEY_R: 1.3 g
  KIDNEY_TOTAL: 2.6 g
  LIVER: 13.9 g
  A/G: 1.1
  ALP: 1631.8 IU/L
  ALT: 70.2 IU/L
  AST: 97.6 IU/L
  BUN: 19.4 mg/dL
  CRE: 0.2 mg/dL
  Ca: 10.4 mg/dL
  Cl: 105.8 meq/L
  DBIL: 0 mg/dL
  GLC: 185 mg/dL
  IP: 7.1 mg/dL
  K: 4.4 meq/L
  LDH: 185.4 IU/L
  Na: 141 meq/L
  PL: 182.6 mg/dL
  RALB: 3.1 g/dL
  TBIL: 0 mg/dL
  TC: 88 mg/dL
  TG: 186.8 mg/dL
  TP: 5.9 g/dL
  gamma-GTP: 2.2 IU/L
[8]
  TERMINAL_BW: 372.4 g
  APTT: 23.2 s
  Bas: 0%
  Eos: 1%
  Fbg: 334.4 mg/dL
  Hb: 15.5 g/dL
  Ht: 45.2%
  Lym: 76%
  MCH: 19.1 pg
  MCHC: 34.3%
  MCV: 55.6 fL
  Mono: 2.4%
  Neu: 19.4%
  PT: 16.1 s
  Plat: 101.2 x10_4/uL
  RBC: 813.6 x10_4/ul
  Ret: 2.4%
  WBC: 104.8 x10_2/uL
  KIDNEY_L: 1.5 g
  KIDNEY_R: 1.5 g
  KIDNEY_TOTAL: 3 g
  LIVER: 16.7 g
  A/G: 1.1
  ALP: 1359 IU/L
  ALT: 43.6 IU/L
  AST: 70 IU/L
  BUN: 18.2 mg/dL
  CRE: 0.2 mg/dL
  Ca: 10.5 mg/dL
  Cl: 104.2 meq/L
  DBIL: 0 mg/dL
  GLC: 183.8 mg/dL
  IP: 6.6 mg/dL
  K: 4.3 meq/L
  LDH: 144.6 IU/L
  Na: 142.2 meq/L
  PL: 180.4 mg/dL
  RALB: 3.1 g/dL
  TBIL: 0.01 mg/dL
  TC: 91.4 mg/dL
  TG: 162.6 mg/dL
  TP: 6.1 g/dL
  gamma-GTP: 1.8 IU/L
